US7544377B2, “Chewable compositions with fast release magnolia bark extract” (GIC Innovations Company, priority 2005, dated 2009)

Columns and labels:
incubated saliva = assay: MIC of surface active agents and emulsifiers, two-fold broth dilution; format: cell-based; conditions: 24 hours at 37° C., lowest dilution not turbid
Method: (§1) To evaluate the germ-kill efficacy and synergist effect when two or more germ-kill actives are combined, testing was performed to determine the ratio of MBE to surface active agent. The germ-kill active and/or surface active agent were dissolved in ethanol or sterile water to give an initial concentration 0.1% to 1%. The solution was diluted with a nutrient broth to give an initial concentration of 0.05% to 0.5%, which was then serially diluted two-fold so that each subsequent dilution contained 50% of the compound concentration of the previous dilution while maintaining a constant level of nutrients for each dilution. These dilutions were inoculated with representative oral microorganisms, or incubated saliva, and incubated for 24 hours at 37° C. For each surface active agent, the lowest dilution that was not turbid was registered as the MIC. The MBC was determined by transferring 10 microliter of liquid from non-turbid tubes to fresh growth media and incubated for 48 hours.

S. mutans = assay: MIC and fractional inhibitory index of MBE / surface active agent combinations; format: cell-based, Streptococcus mutans; conditions: 24 hours at 37° C.
Method: as §1
(1) where an FIC value of less than 1.0 is synergistic, an FIC between 1.0 and 2.0 is additive, and an FIC greater than 2.0 is antagonistic.

[1] = test system: bacteria from freshly-collected simulated whole saliva (biofilm); assay: Mixed culture saliva biofilm on saliva-coated hydroxyapatite discs, timed exposure to actives; format: cell-based; conditions: for % OD reduction (600 nm): Table 8
Method: Although useful to show the comparative effect of Magnolia Bark Extract on biofilm formation and MIC growth, the foregoing test procedure may not effectively mimic the in vivo exposure of an oral care product to a developing plaque biofilm. In an in vivo situation, the active could be exposed to the plaque for a defined period of time at a set frequency (for example, for 5 minutes, three times a day). Therefore, a series of comparative experiments were conducted to mimic the in vivo use of potential active ingredients. To perform the tests the saliva compositions listed below in Tables 2 and 3 were prepared.
A mixed culture system that utilizes the bacteria from freshly-collected simulated whole saliva was used. Saliva cell pellets were used to inoculate saliva-coated hydroxyapatite (S-HA) discs. The discs were placed in 24-well cell culture plates and incubated for up to 3 days. Biofilms were exposed to actives on days 2 and 3 (starting at 18 hours), and quantified on day 4. The number of bacteria was determined by spectrophotometric absorbance or optical density (OD) at 600 nm. The five phases of the experiment were: pellicle formation; bacterial attachment; biofilm growth; exposure to actives; and bacterial enumeration.
To form the pellicles, HA Discs were ultrasonically washed in deionized water and air-dried, then autoclaved. The discs were placed in a 24-well plate with 1 ml 50% sterile saliva (1 part sterile whole saliva: 1 part saliva buffer, filter sterilize after preparation) for 2 hours on slow agitation at room temperature. The saliva was suctioned and then the discs were transferred to fresh wells for bacterial attachment.
To form the biofilms, the bacterial suspension was removed, and the discs were transferred to fresh wells. One ml of supplemented saliva medium was added and the plate was placed in the incubator for overnight incubation and for the duration of the experiment (up to 72 hours).
A stock solution of 1% Magnolia Bark Extract in 60% ethanol was prepared. Magnolia Bark Extract samples were prepared having a concentration range of 125, 250, 500, and 1000 μg/ml (ppm) in a Phosphate-Buffered-Saline (PBS) solution, where the negative control was PBS and the positive control was CHX having a concentration of 0.12%.
One-ml quantities of active ingredients and controls were placed into fresh wells, and the discs were transferred to these wells for 5 minutes. The chlorhexidine control exposure was one minute, two times a day to mimic the standard mouth-rinse procedure. The exposure to active ingredient was carried out at 8:00 AM, 12:00 and 4:00 PM. After the timed exposure, the solution was removed and the discs washed twice with PBS and then transferred to fresh medium. For some experiments, the medium used during the day was TSB (Tryptic Soy Broth) with a 50 μl 40% sterile sucrose solution added to each well (to give a 2% sucrose solution). The medium was not replaced after the mid-day exposure.
After overnight incubation (day 2), discs were exposed to controls and actives. On day 3 the biofilms were again exposed to tests and controls. On day 4 the discs were removed from the medium, the medium pH was measured to obtain an indication of metabolic activity, and the discs were placed into tubes with 2.5 ml PBS, vortexed for 20 sec, and then placed into the ultrasonic bath for another 20 sec. The suspension was transferred into cuvettes and the bacterial cell density determined by OD measurements at 600 nm.
To evaluate the effect of Magnolia Bark Extract in combination with the surface active agent, sodium lauryl sulfate, five active ingredient solutions were prepared using the procedures described above. […] Also, the MBE solutions were prepared to have a concentration of 500 ppm. Sodium lauryl sulfate was added to two of the Magnolia Bark Extract solutions to obtain SLS concentrations of 0.05% and 0.1% in the Magnolia Bark Extract solutions. […]

## N=C(NCCCCCCNC(=N)NC(=N)Nc1ccc(Cl)cc1)NC(=N)Nc1ccc(Cl)cc1.O=C(O)[C@H](O)[C@@H](O)[C@H](O)[C@H](O)CO.O=C(O)[C@H](O)[C@@H](O)[C@H](O)[C@H](O)CO [Chlorhexidine gluconate]
Incubated saliva
  MIC (ppm): 2 ppm
S. mutans
  MIC/ppm: 2 ppm

## Sodium Stearoyl Lactylate
Incubated saliva
  MIC (ppm): >3000 ppm

## CCCCCCCCCCCCOS(=O)(=O)[O-].[Na+] [SLS, sodium lauryl sulfate]
[1]; Table 7, SLS 1000 ppm
  pH (medium pH, indication of metabolic activity): 5.7
[1]; SLS 1000 ppm
  % OD reduction (600 nm): 61%

## Sucrose Stearate
Incubated saliva
  MIC (ppm): >500 ppm

## Sucrose Distearate
Incubated saliva
  MIC (ppm): >500 ppm

## Sodium Brasslate
Incubated saliva
  MIC (ppm): 500 ppm

## [H]/N=C(\N/C(=N/[H])NCCCCCCNC(=N)NC(=N)Nc1ccc(Cl)cc1)Nc1ccc(Cl)cc1 [CHX, chlorhexidine]
[1]; Table 5, CHX 0.12%, exposure one minute, two times a day
  pH (medium pH, indication of metabolic activity): 8.8
[1]; Table 6, CHX 0.12%, exposure one minute, two times a day
  % OD reduction (600 nm, compared to PBS control): 84%
[1]; Table 7, CHX 0.1% (1000 ppm)
  pH (medium pH, indication of metabolic activity): 8.8
[1]; CHX 0.1% (1000 ppm)
  % OD reduction (600 nm): 94%
